Data on 21 compounds can be found in patent publication US8143419B2, “Trisubstituted 1,2,4-triazoles” (Janssen Pharmaceutica N. V., priority 2006, dated 2012).

For orientation: EC50 means the midpoint of the concentration-response curve. The melting point is the temperature of the solid-liquid transition.

In one series the target is T1, hα7-wt nAChR (Homo sapiens, UniProt P36544).
T1 construct: expressed in transfected cells
The series can be described thus: Ca2+ flux imaging (FDSS) (Protocol B), PAM activity with choline as agonist. It counts as cell-based. The conditions noted are these: for EC50: "<5" = no top plateau at maximal concentration; for Emax: read-out: % efficacy. The procedure:
• Hanks buffered saline solution (HBSS, Invitrogen, Belgium), supplemented with 10 mM HEPES (Invitrogen, Belgium), CaCl2 to a final concentration of 5 mM, 0.1% Bovine serum albumin (Sigma-Aldrich NV, Belgium). b) Calcium-Sensitive Dye—Fluo-4AM • Fluo-4AM (Molecular Probes, USA) was dissolved in DMSO containing 10% Pluronic acid (Molecular Probes, USA) to give a stock solution which was diluted in assay buffer supplemented with 5 mM probenicid (Sigma, Aldrich NV, Belgium) to give a final concentration of 2 μM. c) 384-Well Plates • Black 384 well plate black/clear plates, PDL pre-coated (Corning, Incorporated, USA) d) Calcium Flux Measurement
A Functional drug screening system (FDSS, Hamamatsu) was used to measure intracellular free-calcium flux signals.
Monolayers of hα7-wt nAChR-expressing cells were grown in multi-well plates, in particular black-sided, transparent bottomed 384 well plates coated with poly-D-lysine for 24 hours prior to loading with a fluorescent calcium indicator, in a particular embodiment loading with fluo-4AM for up to 120 minutes.
PAM activity was detected in real time by applying the compounds to be tested to the loaded cells along with a α7 nicotinic receptor agonist during constant monitoring of cellular fluorescence in a FDSS. Compounds giving peak fluorescent responses greater than the response due to agonist alone, were considered to be α7 nAChR PAM's. In a particular embodiment, the α7 nicotinic receptor agonist was choline, a more particular embodiment choline applied at a sub-maximal concentration of 100 μM. In a further setting of the present invention the compounds to be tested were applied prior to the α7 nicotinic receptor agonist, in a particular embodiment up to 10 minutes prior to the agonist.
A control response to choline was calculated on each plate from the difference in peak in fluorescence in wells receiving either choline or assay buffer alone. Compounds of the present invention were tested at a concentration range from 0.01 μM to 30 μM. Compounds were considered to have an interesting activity when they potentiated the choline signal at least with 500% when tested at a concentration of 30 μM (the efficacy of 100 μM choline was defined as 100% in the absence of a PAM). The compounds also have a potentiating effect on the response to choline when measured by whole-cell patch clamp electrophysiology in GH4C1 cells stably over-expressing the human wild-type α7 receptor.
Background: Calcium flux is commonly read through the fluorescence of an indicator in the cells.

T1 sequence (P36544 23-502): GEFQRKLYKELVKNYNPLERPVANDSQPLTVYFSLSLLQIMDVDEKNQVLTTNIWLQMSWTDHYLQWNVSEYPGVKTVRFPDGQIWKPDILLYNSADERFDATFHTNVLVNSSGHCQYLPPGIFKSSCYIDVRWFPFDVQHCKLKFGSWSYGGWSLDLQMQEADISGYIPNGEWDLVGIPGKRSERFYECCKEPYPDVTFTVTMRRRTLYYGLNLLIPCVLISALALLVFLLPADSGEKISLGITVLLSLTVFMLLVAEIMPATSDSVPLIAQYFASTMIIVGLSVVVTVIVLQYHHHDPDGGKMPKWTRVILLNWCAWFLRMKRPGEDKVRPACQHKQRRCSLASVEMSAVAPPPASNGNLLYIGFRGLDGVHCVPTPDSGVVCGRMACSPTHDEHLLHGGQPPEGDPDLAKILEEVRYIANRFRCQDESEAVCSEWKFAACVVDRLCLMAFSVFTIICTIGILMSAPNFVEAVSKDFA

For the compound `CNC(=O)Cn1nc(Nc2ccc(F)c(C(F)(F)F)c2)nc1-c1ccnc(C)c1` [Compound 107], the melting point was 265 °C. Further, the EC50 on hα7-wt nAChR is 1000 nM.
Compound `CNC(=O)Cn1nc(Nc2ccc(F)c(C(F)(F)F)c2)nc1-c1ccc(C)nc1` [Compound 108] displayed a melting point of 247.1 °C. For the same compound, on hα7-wt nAChR, the EC50 was 2510 nM.
On the same counts, the results for `CNC(=O)Cn1nc(Nc2ccc(F)c(C(F)(F)F)c2)nc1-c1ccncc1OC` [Compound 109] are 234.8 °C and 3980 nM.
Compound `CNC(=O)Cn1nc(Nc2ccc(F)c(C(F)(F)F)c2)nc1-c1ccc(OC)nc1` [Compound 110] displayed a melting point of 255.1 °C. Besides, the EC50 at hα7-wt nAChR was 126 nM.
For the compound `CCOc1ccc(-c2nc(Nc3ccc(F)c(C(F)(F)F)c3)nn2CC(=O)NC)cn1` [Compound 111], the melting point was 236.2 °C. For the same compound, the concentration giving a half-maximal response (EC50) at hα7-wt nAChR is 251 nM.
On the same counts, the results for `CNC(=O)Cn1nc(Nc2ccc(F)c(C(F)(F)F)c2)nc1-c1ccnc(NC)c1` [Compound 112] are 259.6 °C and 794 nM.
`CNC(=O)Cn1nc(Nc2ccc(F)c(C(F)(F)F)c2)nc1-c1ccc(NC)nc1` [Compound 113]: the melting point was determined as 256.6 °C. The EC50 at hα7-wt nAChR is 2000 nM.
The compound `CNC(=O)Cn1nc(Nc2ccc(F)c(C(F)(F)F)c2)nc1-c1ccncc1NC` [Compound 114] registered a melting point of 260.8 °C. Besides, the concentration for a half-maximal effect (EC50) at hα7-wt nAChR was 631 nM.
As to `CNC(=O)Cn1nc(Nc2ccc(F)c(C(F)(F)F)c2)nc1-c1ccc(NCCOC)nc1` [Compound 115], the melting point worked out at 207.1 °C. In addition, on hα7-wt nAChR, the half-maximal effective concentration (EC50) is > 10000 nM.
With `CNC(=O)Cn1nc(Nc2ccc(F)c(C(F)(F)F)c2)nc1-c1ccncc1F` [Compound 116], the melting point amounted to 249.5 °C. Further, the concentration giving a half-maximal response (EC50) on hα7-wt nAChR is 1260 nM.
Consider `CNC(=O)Cn1nc(Nc2ccc(F)c(C(F)(F)F)c2)nc1-c1ccncc1Cl` [Compound 117], for which the melting point came out at 199.2 °C. In addition, the EC50 at hα7-wt nAChR is 1000 nM.
Take `CCNC(=O)Cn1nc(Nc2ccc(F)c(C(F)(F)F)c2)nc1-c1ccncc1C` [Compound 118]: the melting point came to 238.6 °C. Moreover, the EC50 on hα7-wt nAChR was 794 nM.
`COc1ccc(-c2nc(Nc3ccc(F)c(C(F)(F)F)c3)nn2CC(=O)NC(C)C)c(OC)c1` [Compound 119]: the melting point lay in the range of 215 to 219.2 °C. On hα7-wt nAChR, the EC50 was 794 nM and the Emax amounted to 974%.
As to `Cc1ccncc1-c1nc(Nc2ccc(F)c(C(F)(F)F)c2)nn1CC(=O)NC1CC1` [Compound 120], the melting point was 251 °C. For the same compound, the EC50 at hα7-wt nAChR was 3980 nM.
The compound `COc1ncccc1-c1nc(Nc2ccc(F)c(C(F)(F)F)c2)nn1CC(=O)NC1CC1` [Compound 121] registered a melting point of 242.4 °C. The half-maximal effective concentration (EC50) at hα7-wt nAChR was 2510 nM.
In the case of `CC(C)(O)c1cc(-c2nc(Nc3ccc(F)c(C(F)(F)F)c3)nn2CC(=O)NC2CC2)ccn1` [Compound 122], the melting point worked out at 174 °C. Further, at hα7-wt nAChR, the concentration for a half-maximal effect (EC50) was 2000 nM and the Emax came to 988%.
On to `CC(=O)c1cc(-c2nc(Nc3ccc(F)c(C(F)(F)F)c3)nn2CC(=O)NC2CC2)ccn1` [Compound 123], for which the melting point was 213.2 °C. The 50% effective concentration (EC50) on hα7-wt nAChR was 1260 nM.
For the compound `Cc1cc(-c2nc(Nc3ccc(F)c(C(F)(F)F)c3)nn2CC(=O)N2CCCC2)ccn1` [Compound 124], the melting point turned out to be 172.3 °C. Also, the concentration giving a half-maximal response (EC50) on hα7-wt nAChR is 2510 nM.
Take `CN(C)C(=O)CCn1nc(Nc2ccc(F)c(C(F)(F)F)c2)nc1-c1cccnc1` [Compound 125]: the melting point was found to be 190 °C. The EC50 at hα7-wt nAChR is 631 nM.
On the same counts, the results for `Cc1ncccc1-c1nc(Nc2ccc(F)c(C(F)(F)F)c2)nn1CCC(=O)N(C)C` [Compound 126] are 171.5 °C and 1260 nM.
For `Cc1ccc(-c2nc(Nc3ccc(F)c(C(F)(F)F)c3)nn2CCC(=O)N(C)C)cn1` [Compound 127], the melting point came to 185.4 °C. Moreover, the EC50 on hα7-wt nAChR is 200 nM.
